Laboratory results: PubChem BioAssay (NCI)
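Grown in 96-well plates, cells were treated for 48 hours with each compound at five concentrations. Insufficient inhibition: endpoint recorded as highest concentration tested. Definition used: TGI = concentration required for complete inhibition of growth.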

Experiments:
Test in all cases: growth of human tumour cells (NCI), 48 h
M14 melanoma = system: M14 melanoma
EKVX NSCLC = system: EKVX NSCLC
TK-10 renal = system: TK-10 renal
M19-MEL melanoma = system: M19-MEL melanoma
SK-MEL-5 melanoma = system: SK-MEL-5 melanoma
SN12C renal = system: SN12C renal
SF-295 CNS = system: SF-295 CNS
U251 CNS = system: U251 CNS
ACHN renal = system: ACHN renal
SK-MEL-2 melanoma = system: SK-MEL-2 melanoma
COLO 205 colon = system: COLO 205 colon
OVCAR-4 ovarian = system: OVCAR-4 ovarian
RPMI-8226 leukemia = system: RPMI-8226 leukemia
NCI-H226 lung = system: NCI-H226 lung
DMS 273 small cell lung = system: DMS 273 small cell lung
HOP-92 NSCLC = system: HOP-92 NSCLC
SW-620 colon = system: SW-620 colon
MALME-3M melanoma = system: MALME-3M melanoma
HCC-2998 colon = system: HCC-2998 colon
HT29 colon = system: HT29 colon
NCI-H522 lung = system: NCI-H522 lung
786-0 renal = system: 786-0 renal
LOX IMVI melanoma = system: LOX IMVI melanoma
NCI-H23 lung = system: NCI-H23 lung
KM12 colon = system: KM12 colon
CAKI-1 renal = system: CAKI-1 renal
OVCAR-3 ovarian = system: OVCAR-3 ovarian
HL-60(TB) leukemia = system: HL-60(TB) leukemia
UACC-62 melanoma = system: UACC-62 melanoma
OVCAR-5 ovarian = system: OVCAR-5 ovarian
DLD-1 colon = system: DLD-1 colon
OVCAR-8 ovarian = system: OVCAR-8 ovarian
LXFL 529 NSCLC = system: LXFL 529 NSCLC
K-562 leukemia = system: K-562 leukemia
KM20L2 colon = system: KM20L2 colon
HCT-116 colon = system: HCT-116 colon
HOP-18 NSCLC = system: HOP-18 NSCLC
CCRF-CEM leukemia = system: CCRF-CEM leukemia
SF-268 CNS = system: SF-268 CNS
DU-145 prostate = system: DU-145 prostate
SNB-19 CNS = system: SNB-19 CNS
UACC-257 melanoma = system: UACC-257 melanoma
A498 renal = system: A498 renal
PC-3 prostate = system: PC-3 prostate
SK-OV-3 ovarian = system: SK-OV-3 ovarian
T-47D breast = system: T-47D breast
UO-31 renal = system: UO-31 renal
NCI-H460 lung = system: NCI-H460 lung
HS 578T breast = system: HS 578T breast
A549 NSCLC = system: A549 NSCLC
RXF 393 renal = system: RXF 393 renal
HOP-62 NSCLC = system: HOP-62 NSCLC
MOLT-4 leukemia = system: MOLT-4 leukemia
SNB-75 CNS = system: SNB-75 CNS
MDA-N = system: MDA-N
SF-539 CNS = system: SF-539 CNS
IGROV1 ovarian = system: IGROV1 ovarian
MDA-MB-231 breast = system: MDA-MB-231 breast
NCI/ADR-RES ovarian = system: NCI/ADR-RES ovarian
BT-549 breast = system: BT-549 breast
SK-MEL-28 melanoma = system: SK-MEL-28 melanoma
SR leukemia = system: SR leukemia
MCF7 breast = system: MCF7 breast
MDA-MB-435 = system: MDA-MB-435
HCT-15 colon = system: HCT-15 colon

## C[C@@]12[Se]c3ccccc3[C@]1(C)[Se]c1ccccc12
M14 melanoma
  TGI: > 100 µM
EKVX NSCLC
  TGI: > 100 µM
TK-10 renal
  TGI: > 100 µM
M19-MEL melanoma
  TGI: > 100 µM
SK-MEL-5 melanoma
  TGI: > 100 µM
SN12C renal
  TGI: > 100 µM
SF-295 CNS
  TGI: > 100 µM
U251 CNS
  TGI: > 100 µM
ACHN renal
  TGI: > 100 µM
SK-MEL-2 melanoma
  TGI: > 100 µM
COLO 205 colon
  TGI: > 100 µM
OVCAR-4 ovarian
  TGI: > 100 µM
RPMI-8226 leukemia
  TGI: > 100 µM
NCI-H226 lung
  TGI: > 100 µM
DMS 273 small cell lung
  TGI: > 100 µM
HOP-92 NSCLC
  TGI: > 100 µM
SW-620 colon
  TGI: > 100 µM
MALME-3M melanoma
  TGI: > 100 µM
HCC-2998 colon
  TGI: > 100 µM
HT29 colon
  TGI: > 100 µM
NCI-H522 lung
  TGI: > 100 µM
786-0 renal
  TGI: > 100 µM
LOX IMVI melanoma
  TGI: > 100 µM
NCI-H23 lung
  TGI: > 100 µM
KM12 colon
  TGI: > 100 µM
CAKI-1 renal
  TGI: > 100 µM
OVCAR-3 ovarian
  TGI: > 100 µM
HL-60(TB) leukemia
  TGI: 8.4 µM
UACC-62 melanoma
  TGI: 7.18 µM
OVCAR-5 ovarian
  TGI: > 100 µM
DLD-1 colon
  TGI: > 100 µM
OVCAR-8 ovarian
  TGI: > 100 µM
LXFL 529 NSCLC
  TGI: > 100 µM
K-562 leukemia
  TGI: > 100 µM
KM20L2 colon
  TGI: > 100 µM
HCT-116 colon
  TGI: > 100 µM
HOP-18 NSCLC
  TGI: > 100 µM
CCRF-CEM leukemia
  TGI: > 100 µM
SF-268 CNS
  TGI: > 100 µM

## COC(=O)C1=C(C(=O)OC)N(c2ccncc2)C(c2ccco2)=CC1c1ccccc1[N+](=O)[O-] (stereo not given)
EKVX NSCLC
  TGI: 15.9 µM
TK-10 renal
  TGI: 6.85 µM
SN12C renal
  TGI: 9.72 µM
SF-295 CNS
  TGI: 15.8 µM
DU-145 prostate
  TGI: 18 µM
U251 CNS
  TGI: 10.7 µM
ACHN renal
  TGI: 3.47 µM
SK-MEL-2 melanoma
  TGI: 36.1 µM
SNB-19 CNS
  TGI: 41 µM
COLO 205 colon
  TGI: 10.2 µM
OVCAR-4 ovarian
  TGI: 15.7 µM
RPMI-8226 leukemia
  TGI: 5.69 µM
NCI-H226 lung
  TGI: 30.3 µM
UACC-257 melanoma
  TGI: 4.25 µM
A498 renal
  TGI: 14.1 µM
HOP-92 NSCLC
  TGI: 32.4 µM
PC-3 prostate
  TGI: 31 µM
SK-OV-3 ovarian
  TGI: 33.1 µM
MALME-3M melanoma
  TGI: 18.7 µM
HCC-2998 colon
  TGI: 3.7 µM
HT29 colon
  TGI: 3.95 µM
NCI-H522 lung
  TGI: 5.06 µM
786-0 renal
  TGI: 2.94 µM
LOX IMVI melanoma
  TGI: 3.35 µM
NCI-H23 lung
  TGI: 29.8 µM
T-47D breast
  TGI: 12.9 µM
KM12 colon
  TGI: 3.38 µM
CAKI-1 renal
  TGI: 31.6 µM
UO-31 renal
  TGI: 8.21 µM
OVCAR-3 ovarian
  TGI: > 28.4 µM
HL-60(TB) leukemia
  TGI: 6.06 µM
NCI-H460 lung
  TGI: 14.7 µM
UACC-62 melanoma
  TGI: 27 µM
HS 578T breast
  TGI: 27.8 µM
OVCAR-5 ovarian
  TGI: 30.6 µM
OVCAR-8 ovarian
  TGI: 28.8 µM
A549 NSCLC
  TGI: 31.3 µM
RXF 393 renal
  TGI: 10.6 µM
HOP-62 NSCLC
  TGI: > 46.2 µM
MOLT-4 leukemia
  TGI: 6.17 µM
SNB-75 CNS
  TGI: 16.3 µM
MDA-N
  TGI: 7.51 µM
SF-539 CNS
  TGI: 3.6 µM
IGROV1 ovarian
  TGI: 4.19 µM
MDA-MB-231 breast
  TGI: 27.5 µM
K-562 leukemia
  TGI: > 100 µM
NCI/ADR-RES ovarian
  TGI: 56.1 µM
BT-549 breast
  TGI: 25.4 µM
SK-MEL-28 melanoma
  TGI: 27.2 µM
HCT-116 colon
  TGI: 2.7 µM
SR leukemia
  TGI: 5.26 µM
MCF7 breast
  TGI: 7.06 µM
MDA-MB-435
  TGI: > 39.8 µM
CCRF-CEM leukemia
  TGI: 7.43 µM
HCT-15 colon
  TGI: 5.58 µM
SF-268 CNS
  TGI: 20.8 µM
